Here are results for nine compounds from article PMC9502539, “1,2,3-Triazole-Benzofused Molecular Conjugates as Potential Antiviral Agents against SARS-CoV-2 Virus Variants” (Life, 2022).

Series [1] can be described thus: in vitro. Conditions: African green monkey.
Series [2] has as its target T1, SARS-CoV-2 spike protein (Severe acute respiratory syndrome coronavirus 2, UniProt P0DTC2).
T1 construct: purchased Biosource, Muskego, WI, USA
The series can be described thus: biochemical. It counts as binding. Particulars: read-out: remaining activity % of SARS-CoV-2 spike proteins; for remaining activity at 0.1 µM: tested concentration 100 nM; for remaining activity at 0.2 µM: tested concentration 200 nM; for remaining activity at 0.5 µM: tested concentration 500 nM; for remaining activity at 0.75 µM: tested concentration 750 nM; for remaining activity at 1 µM: tested concentration 1000 nM.

Series [3] has as its system SARS-CoV-2. The series is described as follows: microbe, parasite or virus in culture. It is filed as cell-based. Particulars: for EC50: Severe acute respiratory syndrome coronavirus 2, Vero C1008.
The subject of series [4] is SARS-CoV-2. Conditions: cited from earlier work.
For series [5], the system named is IL-1β. The series is described as follows: Proinflammatory cytokine production (ELISA) in infected cells. It is filed as cell-based. Conditions: infected cells treated with compound vs infected untreated. (In general: ELISA stands for enzyme-linked immunosorbent assay.)
Series [6] concerns IL-6. The description is as above. It counts as cell-based. Particulars: infected cells treated with compound vs infected untreated.

Values after ≈ are worked out from the molar mass of the structure shown.

On to `Nn1c(Cn2cc(CSc3nc4ccccc4n3Cc3cn(Cc4n[nH]c(=S)n4N)nn3)nn2)n[nH]c1=S` [compound 7], for which the CC50 in series [1] amounted to 1530 µg/mL (≈ 2690 µM). Further, in series [2], the remaining activity – broadly, what remains of the control signal, in per cent – at 0.1 µM worked out at 86.1%; the remaining activity at 0.2 µM amounted to 77.2%; the remaining activity at 0.5 µM is 58.6%; the remaining activity at 0.75 µM was found to be 44%. Further, the remaining activity at 1 µM in series [2] was 40%. In series [3], the “Selectivity Index (SI)” value is 5.0 and the EC50 (in general, the midpoint of the concentration-response curve) was found to be 306 µg/mL (≈ 538 µM).
As for `Fc1ccc2nc(C(F)(F)F)cc(OCc3cn(-c4ccccc4Cl)nn3)c2c1` [10 g, 4-((1-(2-chlorophenyl)-1H-1,2,3-triazol-4-yl)methoxy)-6-fluoro-2-(trifluoromethyl)quinoline], the “antiviral activity against SARS-CoV-2” value in series [4] was “high antiviral activity”.
`COc1ccc(-n2cc(CCOc3cc(C(F)(F)F)nc4ccc(F)cc34)nn2)cc1` [12c, 6-fluoro-4-(2-(1-(4-methoxyphenyl)-1H-1,2,3-triazol-4-yl)ethoxy)-2-(trifluoromethyl)quinoline]: the “antiviral activity against SARS-CoV-2” value in series [4] is recorded as “high antiviral activity”.
For `O=C(Cn1cc(CSc2nc3ccccc3n2Cc2cn(CC(=O)NNC(=S)Nc3ccccc3)nn2)nn1)NNC(=S)Nc1ccccc1` [compound 4], in series [1], the CC50 was found to be 1900 µg/mL (≈ 2610 µM). Also, in series [2], the remaining activity at 0.1 µM was 74.6%, the remaining activity at 0.2 µM turned out to be 46%, the remaining activity at 0.5 µM was 21.9% and the remaining activity at 0.75 µM was determined as 20%. In addition, in series [2], the remaining activity at 1 µM is 18%. Besides, in series [3], the “Selectivity Index (SI)” value was determined as 10.90 and the EC50 was determined as 174 µg/mL (≈ 240 µM).
Turning to `S=c1[nH]nc(Cn2cc(CSc3nc4ccccc4n3Cc3cn(Cc4n[nH]c(=S)n4-c4ccccc4)nn3)nn2)n1-c1ccccc1` [compound 6], the CC50 in series [1] came out at 1070 µg/mL (≈ 1540 µM). In addition, in series [2], the remaining activity at 0.1 µM was determined as 79.9%, the remaining activity at 0.2 µM is 65.4%, the remaining activity at 0.5 µM came out at 38.2% and the remaining activity at 0.75 µM was determined as 27%. In addition, the remaining activity at 1 µM in series [2] was 20%. In addition, in series [3], the “Selectivity Index (SI)” value is 6.87 and it took 155 µg/mL (≈ 224 µM) to reach a half-maximal effect (EC50).
Compound `Cc1onc(NS(=O)(=O)c2ccc(-n3cc(CSc4nc5ccccc5n4Cc4cn(-c5ccc(S(=O)(=O)Nc6noc(C)c6C)cc5)nn4)nn3)cc2)c1C` [compound 9] showed a CC50 in series [1] of 1030 µg/mL (≈ 1260 µM). Moreover, in series [5], the “IL-1β protein expression level” value is on record as “noticeably reduced”. In series [2], the remaining activity at 0.1 µM was 67.1%, the remaining activity at 0.2 µM was found to be 32.7%, the remaining activity at 0.5 µM is 11.4% and the remaining activity at 0.75 µM is 12%. In series [2], the remaining activity at 1 µM was 5%. For the same compound, the EC50 in series [3] worked out at 80.4 µg/mL (≈ 98.9 µM). Further, the “IL-6 protein expression level” value in series [6] is listed as “noticeably reduced”.
Compound `Cc1ccc2nc(NC(=O)Cn3cc(CN4C(=O)C(=O)c5ccccc54)nn3)sc2c1` [compound 12] yielded a CC50 in series [1] of 332 µg/mL (≈ 767 µM). In series [2], the remaining activity at 0.1 µM is 95.9%, the remaining activity at 0.2 µM was 92.5%, the remaining activity at 0.5 µM was 82% and the remaining activity at 0.75 µM amounted to 82%. Moreover, in series [2], the remaining activity at 1 µM amounted to 70%. In addition, in series [3], the “Selectivity Index (SI)” value is listed as 0.87 and a half-maximal effect (EC50) was put at 382 µg/mL (≈ 882 µM).
As for `O=C(Cn1cc(CSc2nc3ccccc3n2Cc2cn(CC(=O)NNC(=S)Nc3ccc(F)cc3)nn2)nn1)NNC(=S)Nc1ccc(F)cc1` [compound 5], the CC50 in series [1] was determined as 2040 µg/mL (≈ 2670 µM). Also, in series [2], the remaining activity at 0.1 µM is 83.8%, the remaining activity at 0.2 µM came to 70.2%, the remaining activity at 0.5 µM is 45.8% and the remaining activity at 0.75 µM amounted to 32%. Besides, the remaining activity at 1 µM in series [2] is 26%. Besides, in series [3], the “Selectivity Index (SI)” value is 8.82 and it took 231 µg/mL (≈ 303 µM) to reach a half-maximal effect (EC50).
In series [1], `CC(C)(O/N=C(\C(=O)N[C@@H]1C(=O)N2C(C(=O)[O-])=C(C[n+]3ccccc3)CS[C@H]12)c1csc(N)n1)C(=O)O` [Ceftazidime, ceftazidime, reference compound] yielded a CC50 of 1050 µg/mL (≈ 1910 µM). In addition, in series [2], the remaining activity at 0.1 µM turned out to be 99%, the remaining activity at 0.2 µM came out at 79%, the remaining activity at 0.5 µM stood at 59% and the remaining activity at 0.75 µM turned out to be 55.1%. Also, the remaining activity at 1 µM in series [2] came out at 45.2%. In series [3], the “Selectivity Index (SI)” value is reported as 12.29 and the midpoint of the response, the EC50, lay at 85.1 µg/mL (≈ 156 µM).
